The results in this text go back to patent publication US10526343B2, “Heterocyclic systems and pharmaceutical applications thereof” (University of Sharjah, priority 2018, dated 2020).

The term MIC denotes the lowest concentration that inhibits growth of the organism.

Holding throughout (type): cell-based
The subject of one assay is S. aureus (ATCC 25923). Kind of assay: MIC by broth microdilution. Conditions: Staphylococcus aureus, ATCC25923. As for the experimental part: (§1) Bacteria of the genus Staphylococcus were selected for MIC investigation due to its clinical importance. Compounds showing activity against S. aureus (ATCC 25923) were tested against 10 multidrug-resistant strains of Staphylococcus species, including: clinical isolates methicillin-resistant Staphylococcus aureus (MRSA) strains MRSA-1, MRSA-2, and MRSA-3, and environmental isolates S. saprophyticus (strains UDH-1, UDH-2, UDH-3 and UDH-4), S. haemolyticus (strains UDH-6 and UDH-7), and S. epidermidis strain UDH-5.
(§2) A broth microdilution method was used to measure MIC according to the Clinical and Laboratory Standards Institute guidelines. Two-fold serial dilutions of the test compound (8 concentrations ranged between 100-0.78 μg/mL) were tested. Two reference antibiotics were used as quality controls (ciprofloxacin and amikacin). In each experiment, solvent (DMSO) was used as a negative control, un-treated control (composing of bacteria in Mueller-Hinton broth) was used as a growth control, blank (culture media alone) was used as sterility control. The 96-well microplate with the test compounds was incubated for 20 hours at 37° C. Turbidity in wells indicated bacterial growth. […] For the definite determination of MIC, CellTiter-Blue® Cell Viability Assay (Promega, USA) was used (as above). The MIC was defined as the lowest compound concentration that prevented the color change of the Cell Viability solution (absence of bacterial growth; thus, suspension remained blue in color). For the definite determination of MIC, CellTiter-Blue® Cell Viability Assay (Promega, USA) was used (as above). To each well of the 96-well microplate, 20 μL of the Cell Viability Assay solution was added to the overnight (20 hours culture) and incubated at 37° C. for 4 hours. After the end of the incubation, pink and blue colors were used to differentiate viable from dead bacterial suspensions, respectively. The MIC was defined as the lowest compound concentration that prevented the color change.

Assay [1] concerns Enterococcus faecalis (ATCC 29212). Briefly: Cell viability assay (resazurin) screening for antibacterial activity. To be noted: single high concentration of 1 mg/mL. Also on record: key: Positive: A positive result indicates antibacterial activity expressed as growth inhibition; Negative: a negative result indicates no antibacterial activity expressed as bacterial growth at the tested concentration.

In assay [2] the test system is MRSA-2 (clinical isolate, methicillin-resistant Staphylococcus aureus). Kind of assay: MIC by broth microdilution. As for the experimental part:
(§3) Bacteria of the genus Staphylococcus were selected for MIC investigation due to its clinical importance.
as §2, with “Two reference antibiotics were used as quality controls (ciprofloxacin and amikacin).” left out
In general terms: In broth dilution the organism is exposed to a series of concentrations in liquid medium.

In assay [3] the test system is MRSA-3 (clinical isolate, methicillin-resistant Staphylococcus aureus). Briefly: MIC by broth microdilution. As for the experimental part:
as §3
as §2, with “Two reference antibiotics were used as quality controls (ciprofloxacin and amikacin).” left out

Assay [4] has as its system MRSA-1 (clinical isolate, methicillin-resistant Staphylococcus aureus). Briefly: MIC by broth microdilution. To be noted: Staphylococcus aureus, MRSA; clinical isolate. As for the experimental part:
as §3
as §2, with “Two reference antibiotics were used as quality controls (ciprofloxacin and amikacin).” left out

The test system of assay [5] is UDH-2 (environmental isolate, S. saprophyticus). Briefly: MIC by broth microdilution. To be noted: Staphylococcus saprophyticus. As for the experimental part: as §1
(§4) All these strains were resistant to at least three antibiotics from different classes, as confirmed by a disk diffusion assay.
as §2

Assay [6] concerns UDH-3 (environmental isolate, S. saprophyticus). Kind of assay: MIC by broth microdilution. To be noted: for MIC: Staphylococcus saprophyticus, environmental isolate. As for the experimental part:
as §1, §4, §2

For assay [7], the system named is UDH-1 (environmental isolate, S. saprophyticus). Briefly: MIC by broth microdilution. To be noted: for MIC: Staphylococcus saprophyticus, environmental isolate; for times lower than MIC of ciprofloxacin: UDH-1. As for the experimental part:
as §1, §4, §2

The test system of assay [8] is UDH-7 (environmental isolate, S. haemolyticus). Kind of assay: MIC by broth microdilution. To be noted: Staphylococcus haemolyticus; environmental isolate. As for the experimental part:
as §1, §4, §2

Assay [9] concerns UDH-6 (environmental isolate, S. haemolyticus). Briefly: MIC by broth microdilution. To be noted: Staphylococcus haemolyticus; environmental isolate. As for the experimental part: as §1, §4, §2
Assay [10] has as its system UDH-5 (environmental isolate, S. epidermidis). Briefly: MIC by broth microdilution. Conditions: Staphylococcus epidermidis. As for the experimental part: as §1, §4, §2
For assay [11], the system named is UDH-4 (environmental isolate, S. saprophyticus). Kind of assay: MIC by broth microdilution. Conditions: Staphylococcus saprophyticus. As for the experimental part: as §1, §4, §2
Assay [12] concerns Escherichia coli (ATCC 25922). Briefly: Cell viability assay (resazurin) screening for antibacterial activity. Conditions: single high concentration of 1 mg/mL. Also on record: key: Positive: A positive result indicates antibacterial activity expressed as growth inhibition; Negative: a negative result indicates no antibacterial activity expressed as bacterial growth at the tested concentration. For orientation: The colour change of resazurin is a common sign of viable cells or microbes.

Assay [13] deals with Bacillus subtilis (environmental isolate). The assay is described as above. Also on record: key: Positive: A positive result indicates antibacterial activity expressed as growth inhibition; Negative: a negative result indicates no antibacterial activity expressed as bacterial growth at the tested concentration. Conditions: single high concentration of 1 mg/mL.
Assay [14] has as its system Staphylococcus aureus (ATCC 25923). The description is as above. Also on record: key: Positive: A positive result indicates antibacterial activity expressed as growth inhibition; Negative: a negative result indicates no antibacterial activity expressed as bacterial growth at the tested concentration. Conditions: single high concentration of 1 mg/mL.
Assay [15] has as its system Pseudomonas aeruginosa (ATCC 27853). The description is as above. Conditions: single high concentration of 1 mg/mL. Also on record: key: Positive: A positive result indicates antibacterial activity expressed as growth inhibition; Negative: a negative result indicates no antibacterial activity expressed as bacterial growth at the tested concentration.

Converted amounts (≈) assume the structure as drawn.

For `COC(=O)CC1COc2c(cc3c4c2CCCN4CCC3)-c2c(NC(C)(C)C)n3c(-c4ccc(F)c(F)c4)csc3[n+]21` (stereo not shown) [Compound 1s], the MIC in the assay with S. aureus (ATCC 25923) was 6.25 µg/mL; in [2], 6.25 µg/mL; in [3] it was 6.25 µg/mL; in [4] it was 6.25 µg/mL; in assay [5], 25 µg/mL; in assay [6] it was 12.5 µg/mL. Besides, the MIC came out at 12.5 µg/mL in assay [7]; 25 µg/mL in assay [8]; 25 µg/mL in assay [9]; 3.12 µg/mL in assay [10]; 6.25 µg/mL in assay [11]. The “antibacterial activity, Enterococcus faecalis” value in [1] was “Positive”. In [12], the “antibacterial activity, Escherichia coli” value is “Negative”. The “antibacterial activity, Bacillus subtilis” value in assay [13] is reported as “Positive”. In assay [14], the “antibacterial activity, Staphylococcus aureus” value is “Positive”. Besides, the “antibacterial activity, Pseudomonas aeruginosa” value in assay [15] was “Negative”.

For the molecule `COC(=O)CC1COc2c(cc3c4c2CCCN4CCC3)-c2c(NC(C)(C)C)n3c(-c4cccc5c4OCCO5)csc3[n+]21` (stereo not shown) [Compound 1p], the MIC is 3.12 µg/mL with S. aureus (ATCC 25923); 6.25 µg/mL in assay [2]; 6.25 µg/mL in assay [3]; 6.25 µg/mL in [4]; 25 µg/mL in assay [5]; 6.25 µg/mL in assay [6]. The MIC in [7] turned out to be 12.5 µg/mL; in assay [8], 12.5 µg/mL; in assay [9], 12.5 µg/mL; in [10], 1.56 µg/mL; in assay [11] it was 6.25 µg/mL. Besides, the “antibacterial activity, Enterococcus faecalis” value in assay [1] was “Positive”. For the same molecule, in assay [12], the “antibacterial activity, Escherichia coli” value was “Negative”. Besides, in assay [13], the “antibacterial activity, Bacillus subtilis” value was “Positive”. Also, the “antibacterial activity, Staphylococcus aureus” value in [14] is given as “Positive”. Further, the “antibacterial activity, Pseudomonas aeruginosa” value in assay [15] was “Negative”.

As to `COC(=O)CC1COc2c(cc3c4c2CCCN4CCC3)-c2c(NC(C)(C)C)n3c(-c4ccc(OC)cc4)c(-c4ccc(OC)cc4)sc3[n+]21` (stereo not shown) [Compound 1z], the MIC in the assay with S. aureus (ATCC 25923) was found to be 3.12 µg/mL; in [2], 6.25 µg/mL; in assay [3], 6.25 µg/mL; in assay [4] it was 6.25 µg/mL; in assay [5], 6.25 µg/mL; in assay [6], 12.5 µg/mL. Moreover, the MIC in [7] was 12.5 µg/mL; in assay [8] it was 12.5 µg/mL; in [9] it was 12.5 µg/mL; in assay [10], 1.56 µg/mL; in assay [11] it was 3.12 µg/mL. Further, the “antibacterial activity, Enterococcus faecalis” value in [1] is recorded as “Positive”. Further, the “antibacterial activity, Escherichia coli” value in [12] is “Negative”. In [13], the “antibacterial activity, Bacillus subtilis” value is “Positive”. Also, the “antibacterial activity, Staphylococcus aureus” value in assay [14] is listed as “Positive”. The “antibacterial activity, Pseudomonas aeruginosa” value in assay [15] is on record as “Negative”.

Regarding `COC(=O)CC1COc2c(cc3c4c2CCCN4CCC3)-c2c(NC(C)(C)C)n3c(-c4ccccc4)c(-c4ccccc4)sc3[n+]21` (stereo not shown) [Compound 2a], the MIC in the assay with S. aureus (ATCC 25923) amounted to 6.25 µg/mL; in [2] it was 3.12 µg/mL; in assay [3], 3.12 µg/mL; in assay [4] it was 6.25 µg/mL; in assay [5], 6.25 µg/mL; in assay [6] it was 3.12 µg/mL. Also, the MIC in assay [7] was found to be 6.25 µg/mL; in assay [8], 12.5 µg/mL; in [9], 6.25 µg/mL; in [10], 1.56 µg/mL; in assay [11] it was 6.25 µg/mL. Besides, the “antibacterial activity, Enterococcus faecalis” value in [1] is listed as “Positive”. The “times lower than MIC of ciprofloxacin” value in assay [6] (UDH-3) is recorded as “approximately 20 times”; in [7] it was “approximately 10 times”. The “antibacterial activity, Escherichia coli” value in assay [12] is reported as “Negative”. The “antibacterial activity, Bacillus subtilis” value in assay [13] is recorded as “Positive”. Further, the “antibacterial activity, Staphylococcus aureus” value in [14] is given as “positive antibacterial activities”. Further, the “antibacterial activity, Pseudomonas aeruginosa” value in assay [15] is listed as “Negative”.

Take `COC(=O)CC1COc2c(cc3c4c2CCCN4CCC3)-c2c(NC(C)(C)C)n3c(-c4ccc(NC(C)=O)cc4)csc3[n+]21` (stereo not shown) [Compound 1w]: the minimum inhibitory concentration (MIC) against S. aureus (ATCC 25923) was 6.25 µg/mL; in assay [2], 12.5 µg/mL; in [3], 12.5 µg/mL; in assay [4], 12.5 µg/mL; in assay [5] it was 25 µg/mL; in assay [6] it was 12.5 µg/mL. In addition, the MIC in [7] was 12.5 µg/mL; in assay [8], 50 µg/mL; in assay [9] it was 50 µg/mL; in [10], 6.25 µg/mL; in [11], 12.5 µg/mL. The “antibacterial activity, Enterococcus faecalis” value in [1] was “Positive”. In addition, in assay [12], the “antibacterial activity, Escherichia coli” value is listed as “Negative”. For the same molecule, in assay [13], the “antibacterial activity, Bacillus subtilis” value was “Positive”. Moreover, the “antibacterial activity, Staphylococcus aureus” value in assay [14] is recorded as “Positive”. The “antibacterial activity, Pseudomonas aeruginosa” value in [15] is on record as “Negative”.

For the molecule `NCC[C@H](O)C(=O)N[C@@H]1C[C@H](N)[C@@H](O[C@H]2O[C@H](CN)[C@@H](O)[C@H](O)[C@H]2O)[C@H](O)[C@H]1O[C@H]1O[C@H](CO)[C@@H](O)[C@H](N)[C@H]1O` [Amikacin, amikacin, reference compound], the MIC in the assay with S. aureus (ATCC 25923) was determined as 4 µg/mL (≈ 6.83 µM); in assay [2], 8 µg/mL (≈ 13.7 µM); in assay [3], 2 µg/mL (≈ 3.42 µM); in assay [4], 16 µg/mL (≈ 27.3 µM); in assay [5], 0.25 µg/mL (≈ 0.427 µM); in assay [6], 0.5 µg/mL (≈ 0.854 µM). The MIC is 8 µg/mL (≈ 13.7 µM) in assay [7]; 4 µg/mL (≈ 6.83 µM) in assay [8]; 4 µg/mL (≈ 6.83 µM) in [9]; less than 0.25 µg/mL in [10]; less than 0.25 µg/mL in [11].

`COC(=O)CC1COc2c(cc3c4c2CCCN4CCC3)-c2c(NC(C)(C)C)n3c(-c4ccc(Cl)cc4Cl)c(C)sc3[n+]21` (stereo not shown) [Compound 1x]: the MIC in the assay on S. aureus (ATCC 25923) was 3.12 µg/mL; in assay [2], 6.25 µg/mL; in [3], 6.25 µg/mL; in assay [4], 6.25 µg/mL; in [5], 6.25 µg/mL; in assay [6], 6.25 µg/mL. Besides, the MIC is 6.25 µg/mL in assay [7]; 12.5 µg/mL in [8]; 6.25 µg/mL in [9]; 1.56 µg/mL in assay [10]; 3.12 µg/mL in assay [11]. Further, the “antibacterial activity, Enterococcus faecalis” value in [1] is on record as “Positive”. Further, in assay [7], the “times lower than MIC of ciprofloxacin” value is “approximately 10 times”. The “antibacterial activity, Bacillus subtilis” value in assay [13] is given as “Positive”. In assay [14], the “antibacterial activity, Staphylococcus aureus” value is given as “Positive”. Further, the “antibacterial activity, Pseudomonas aeruginosa” value in assay [15] is given as “Negative”.
